# Test results taken from patent publication US10131652B2, “Pyrimidinyloxy benzene derivatives as herbicides” (E. I. DU PONT DE NEMOURS AND COMPANY, priority 2014, dated 2018).
# How the values were obtained:
# Assay type in all cases: in vivo
# [1] = test system: Italian ryegrass (Lolium multiflorum); test: Test B pre-/postemergence plant response
# Excerpt: (§1) Seeds of plant species selected from bamyardgrass (Echinochloa crus-galli), kochia (Kochia scoparia), ragweed (common ragweed, Ambrosia elatior), Italian ryegrass (Lolium multiflorum), large (Lg) crabgrass (Digitaria sanguinalis), giant foxtail (Setaria faberii), momingglory (Ipomoea spp.), pigweed (Amaranthus retroflexus), velvetleaf (Abutilon theophrasti), wheat (Triticum aestivum), and corn (Zea mays) were planted into a blend of loam soil and sand and treated preemergence with a directed soil spray using test chemicals formulated in a non-phytotoxic solvent mixture which included a surfactant. At the same time, plants selected from these crop and weed species and also blackgrass (Alopecurus myosuroides), and galium (catchweed bedstraw, Galium aparine) were planted in pots containing the same blend of loam soil and sand and treated with postemergence applications of test chemicals formulated in the same manner. Plants ranged in height from 2 to 10 cm and were in the one- to two-leaf stage for the postemergence treatment. Treated plants and untreated controls were maintained in a greenhouse for approximately 10 days, after which time all treated plants were compared to untreated controls and visually evaluated for injury. Plant response ratings, summarized in Table B, are based on a 0 to 100 scale where 0 is no effect and 100 is complete control. A dash (-) response means no test result.
# [2] = test system: barnyardgrass (Echinochloa crus-galli); test: Test B pre-/postemergence plant response
# Excerpt: as §1
# [3] = test system: corn (Zea mays); test: Test B pre-/postemergence plant response
# Excerpt: as §1
# [4] = test system: giant foxtail (Setaria faberii); test: Test B pre-/postemergence plant response
# Excerpt: as §1
# [5] = test system: kochia (Kochia scoparia); test: Test B pre-/postemergence plant response
# Excerpt: as §1
# [6] = test system: pigweed (Amaranthus retroflexus); test: Test B pre-/postemergence plant response
# Excerpt: as §1
# [7] = test system: ragweed (common ragweed, Ambrosia elatior); test: Test B pre-/postemergence plant response
# Excerpt: as §1
# [8] = test system: wheat (Triticum aestivum); test: Test B pre-/postemergence plant response
# Excerpt: as §1
# [9] = test system: blackgrass (Alopecurus myosuroides); test: Test B postemergence plant response
# Excerpt: (§2) At the same time, plants selected from these crop and weed species and also blackgrass (Alopecurus myosuroides), and galium (catchweed bedstraw, Galium aparine) were planted in pots containing the same blend of loam soil and sand and treated with postemergence applications of test chemicals formulated in the same manner. Plants ranged in height from 2 to 10 cm and were in the one- to two-leaf stage for the postemergence treatment. Treated plants and untreated controls were maintained in a greenhouse for approximately 10 days, after which time all treated plants were compared to untreated controls and visually evaluated for injury. Plant response ratings, summarized in Table B, are based on a 0 to 100 scale where 0 is no effect and 100 is complete control. A dash (-) response means no test result.
# [10] = test system: galium (catchweed bedstraw, Galium aparine); test: Test B postemergence plant response
# Excerpt: as §2
# [11] = test system: barnyardgrass (Echinochloa crus-galli); test: Test C flooded paddy test plant response; conditions: Flood, 250 g ai/ha; scale of 0 to 100 where 0 is no effect and 100 is complete control; 13 to 15 days
# Method: (§3) Plant species in the flooded paddy test selected from rice (Oryza sativa), small-flower umbrella sedge (Cyperus difformis), ducksalad (Heteranthera limosa), and bamyardgrass (Echinochloa crus-galli) were grown to the 2-leaf stage for testing. At time of treatment, test pots were flooded to 3 cm above the soil surface, treated by application of test compounds directly to the paddy water, and then maintained at that water depth for the duration of the test. Treated plants and controls were maintained in a greenhouse for 13 to 15 days, after which time all species were compared to controls and visually evaluated. Plant response ratings, summarized in Table C, are based on a scale of 0 to 100 where 0 is no effect and 100 is complete control. A dash (-) response means no test result.
# [12] = test system: ducksalad (Heteranthera limosa); test: Test C flooded paddy test plant response; conditions: Flood, 250 g ai/ha; scale of 0 to 100 where 0 is no effect and 100 is complete control; 13 to 15 days
# Method: as §3
# [13] = test system: rice (Oryza sativa); test: Test C flooded paddy test plant response; conditions: Flood, 250 g ai/ha; scale of 0 to 100 where 0 is no effect and 100 is complete control; 13 to 15 days
# Method: as §3
# [14] = test system: small-flower umbrella sedge (Cyperus difformis); test: Test C flooded paddy test plant response; conditions: Flood, 250 g ai/ha; scale of 0 to 100 where 0 is no effect and 100 is complete control; 13 to 15 days
# Method: as §3
# [15] = 31 g ai/ha, Postemergence, 0 to 100 scale, 0 no effect, 100 complete control
# [16] = 125 g ai/ha, postemergence, 0 to 100 scale, 0 no effect, 100 complete control
# [17] = Preemergence, 31 g ai/ha, 0 to 100 scale (0 no effect, 100 complete control)
# [18] = Preemergence, 125 g ai/ha, 0 to 100 scale where 0 is no effect and 100 is complete control
# [19] = Postemergence, 500 g ai/ha, 0 to 100 scale (0 no effect, 100 complete control)
# [20] = Preemergence, 500 g ai/ha, 0 to 100 scale where 0 is no effect and 100 is complete control
Compound,"Plant response rating, Ryegrass, Italian [1, 16]","Plant response rating, Ryegrass, Italian [1, 18]","Plant response rating, Barnyardgrass [2, 16]","Plant response rating, Barnyardgrass [2, 18]","Plant response rating, Corn [3, 16]","Plant response rating, Foxtail, Giant [4, 16]","Plant response rating, Foxtail, Giant [4, 18]","Plant response rating, Kochia [5, 16]","Plant response rating, Kochia [5, 18]","Plant response rating, Pigweed [6, 16]","Plant response rating, Pigweed [6, 18]","Plant response rating, Ragweed [7, 16]","Plant response rating, Ragweed [7, 18]","Plant response rating, Wheat [8, 16]","Plant response rating, Blackgrass [9, 16]","Plant response rating, Galium [10, 16]",Barnyardgrass plant response rating [11],Ducksalad plant response rating [12],Rice plant response rating [13],"Sedge, Umbrella plant response rating [14]",further results
N#Cc1cc(-c2ccccc2Oc2ncc(Cl)cn2)no1 [Compound 38],0,0,0,0,0,0,0,30,0,20,40,0,0,0,0,30,0,60,0,0,"Plant response rating, Ryegrass, Italian [1, 15]: 0; Ryegrass, Italian plant response rating [1, 17]: 0; Plant response rating, Barnyardgrass [2, 15]: 0; Barnyardgrass plant response rating [2, 17]: 0; Plant response rating, Corn [3, 15]: 0; Plant response rating, Foxtail, Giant [4, 15]: 0; Foxtail, Giant plant response rating [4, 17]: 0; Plant response rating, Kochia [5, 15]: 0; Kochia plant response rating [5, 17]: 0; Plant response rating, Pigweed [6, 15]: 0; Pigweed plant response rating [6, 17]: 0; Plant response rating, Ragweed [7, 15]: 0; Ragweed plant response rating [7, 17]: 0; Plant response rating, Wheat [8, 15]: 0; Plant response rating, Blackgrass [9, 15]: 0; Plant response rating, Galium [10, 15]: 20"
Cn1nnnc1-c1ccccc1Oc1ncc(Cl)cn1 [Compound 47],0,0,0,0,0,0,10,60,60,50,30,20,10,0,0,30,0,0,0,0,"Plant response rating, Ryegrass, Italian [1, 19]: 0; Plant response rating, Ryegrass, Italian [1, 20]: 0; Plant response rating, Barnyardgrass [2, 19]: 0; Plant response rating, Barnyardgrass [2, 20]: 0; Plant response rating, Corn [3, 19]: 0; Plant response rating, Foxtail, Giant [4, 19]: 50; Plant response rating, Foxtail, Giant [4, 20]: 30; Plant response rating, Kochia [5, 19]: 80; Plant response rating, Kochia [5, 20]: 70; Plant response rating, Pigweed [6, 19]: 70; Plant response rating, Pigweed [6, 20]: 60; Plant response rating, Ragweed [7, 19]: 30; Plant response rating, Ragweed [7, 20]: 60; Plant response rating, Wheat [8, 19]: 10; Plant response rating, Blackgrass [9, 19]: 0; Plant response rating, Galium [10, 19]: 60"
Cn1nnc(-c2ccccc2Oc2ncc(Cl)cn2)n1 [Compound 48],0,40,0,0,0,0,10,50,60,70,80,50,50,0,40,70,0,0,0,0,"Plant response rating, Ryegrass, Italian [1, 19]: 0; Plant response rating, Ryegrass, Italian [1, 20]: 50; Plant response rating, Barnyardgrass [2, 19]: 0; Plant response rating, Barnyardgrass [2, 20]: 40; Plant response rating, Corn [3, 19]: 10; Plant response rating, Foxtail, Giant [4, 19]: 40; Plant response rating, Foxtail, Giant [4, 20]: 50; Plant response rating, Kochia [5, 19]: 100; Plant response rating, Kochia [5, 20]: 80; Plant response rating, Pigweed [6, 19]: 100; Plant response rating, Pigweed [6, 20]: 100; Plant response rating, Ragweed [7, 19]: 70; Plant response rating, Ragweed [7, 20]: 60; Plant response rating, Wheat [8, 19]: 0; Plant response rating, Blackgrass [9, 19]: 60; Plant response rating, Galium [10, 19]: 100"
Cn1nnnc1-c1ccccc1Oc1ncc(Br)cn1 [Compound 49],0,0,0,0,0,0,0,30,0,10,20,30,0,10,0,20,0,0,0,0,"Plant response rating, Ryegrass, Italian [1, 19]: 0; Plant response rating, Ryegrass, Italian [1, 20]: 0; Plant response rating, Barnyardgrass [2, 19]: 10; Plant response rating, Barnyardgrass [2, 20]: 0; Plant response rating, Corn [3, 19]: 10; Plant response rating, Foxtail, Giant [4, 19]: 10; Plant response rating, Foxtail, Giant [4, 20]: 20; Plant response rating, Kochia [5, 19]: 30; Plant response rating, Kochia [5, 20]: 70; Plant response rating, Pigweed [6, 19]: 30; Plant response rating, Pigweed [6, 20]: 30; Plant response rating, Ragweed [7, 19]: 30; Plant response rating, Ragweed [7, 20]: 0; Plant response rating, Wheat [8, 19]: 20; Plant response rating, Blackgrass [9, 19]: 10; Plant response rating, Galium [10, 19]: 60"
Cn1cc(-c2ccccc2Oc2ncc(Cl)cn2)nn1 [Compound 51],0,0,0,0,0,10,10,70,10,70,50,20,50,0,0,60,0,30,0,0,"Plant response rating, Ryegrass, Italian [1, 19]: 0; Plant response rating, Ryegrass, Italian [1, 20]: 0; Plant response rating, Barnyardgrass [2, 19]: 0; Plant response rating, Barnyardgrass [2, 20]: 10; Plant response rating, Corn [3, 19]: 0; Plant response rating, Foxtail, Giant [4, 19]: 50; Plant response rating, Foxtail, Giant [4, 20]: 60; Plant response rating, Kochia [5, 19]: 100; Plant response rating, Kochia [5, 20]: 70; Plant response rating, Pigweed [6, 19]: 80; Plant response rating, Pigweed [6, 20]: 100; Plant response rating, Ragweed [7, 19]: 60; Plant response rating, Ragweed [7, 20]: 50; Plant response rating, Wheat [8, 19]: 10; Plant response rating, Blackgrass [9, 19]: 50; Plant response rating, Galium [10, 19]: 90"
